Data from US11786600B2, “Cliptac composition” (OTSUKA PHARMACEUTICAL CO., LTD., priority 2016, dated 2023).
Entries after “also recorded” stand apart in the source; their conditions may differ. Each block holds one molecule with its values, some of them ahead of it.

Experiments:
[1] = biological target: T1, BRD4-1 (Homo sapiens, UniProt O60885); test: AlphaScreen histone peptide displacement assay, BRD4-1; format: binding
T1 construct: evaluated against both domains of BRD4, BRD4-1 and BRD4-2; Reaction Biology
Excerpt: (§1) Experiments performed on HeLa cells.
(§2) FIG. 4: Biological evaluation of Tz-thalidomide against both domains of BRD4, BRD4-1 and BRD4-2. Biological evaluation of Tz-thalidomide (n=2) by AlphaScreen (performed by Reaction Biology).

[2] = biological target: T2, BRD4-2 (Homo sapiens, UniProt O60885); test: AlphaScreen histone peptide displacement assay, BRD4-2; format: binding
T2 construct: evaluated against both domains of BRD4, BRD4-1 and BRD4-2; Reaction Biology
Excerpt: as §1, §2

[3] = biological target: T3, BRD4 (Homo sapiens, UniProt O60885); test: BRD4 degradation by self-assembling CLIPTACs in HeLa cells (immunoblot); format: cell-based; conditions: for BRD4 level, time course: JQ1-TCO 10 μM then Tz-thalidomide 10 μM
T3 construct: host or cells: HeLa
Experimental: BRD4 presence was assessed by SDS-PAGE followed by Western Blot using a specific BRD4 antibody.
(§3) HeLa cells (purchased from ATCC) were cultured in Eagle's Minimum Essential Medium (EMEM) supplemented with 10% FBS (Gibco, Life Technologies), 0.1% NEAA (Non-Essential Amino Acid, Gibco, Life Technologies) and 2 mM glutamine and were grown at 37° C. with 5% CO2. A375 and HCT116 cells (purchased from ATCC) were cultured in Dulbecco's Modified Eagle Medium (DMEM) supplemented with 10% FBS (Gibco, Life Technologies) and were grown at 37° C. with 5% CO2.
(§4) The medium was removed and the cells were washed with PBS (2×). A375 and HCT116 cells were lysed with TG Lysis buffer (150 μL per well) and kept on ice for 20 min. The cell lysates were centrifuged at 14000 rpm for 10 min at 4° C. and the protein concentration was determined by a Pierce™ BCA Protein Assay Kit. Samples were normalised, separated on 4-12% NuPAGE gels (Life Technologies) and transferred onto a nitrocellulose membrane (Novex). The membrane was blocked in blocking buffer (Odyssey) at r.t. for 1 hour and subjected to immunodetection using a total ERK1/2 primary antibody (p44/42 MAPK ERK1/2, Cell Signaling Technologies®, 1:1000) and anti-actin antibody (Abcam ab6276, 1:10000) in blocking buffer, at r.t. for 1 hour. After washing 3× with a Tris-buffered saline (TBS) with 0.1% Tween-20 solution (TBST), the membrane was incubated with fluorescently labelled secondary antibody (IRDye800CW Donkey Anti-Rabbit, 1:10 000 and IRDye680RD Donkey Anti-Mouse, 1:10 000) for 1 hour at r.t. in the dark. After washing 2× with a TBS solution, the membrane was imaged on an Li-Cor Biosciences Odyssey system in the 800 nm and 700 nm channels.
The same procedure was followed with HeLa cells using RIPA Lysis buffer (150 μL per well) and 5% non-fat milk in TBST as blocking buffer. Immunodetection was performed using an anti-BRD4 antibody (Bethyl Laboratories, A301:985A100, 1:1000) and anti-actin antibody (Abcam ab6276, 1:10000) in 5% non-fat milk in TBST, at 4° C. for 48 hours.
(§5) HeLa, A375 and HCT116 cells were seeded in 6-well plates at 1.5.10^5 cells/mL with 2 mL/well and allowed to attach overnight before being incubated with the appropriate compounds. TCO-ligand was added from a 1000× stock in DMSO-d6 (2 μL) to the plates. The cells were incubated at 37° C. in an atmosphere of 5% CO2 and air for 18 hours. Tz-Thalidomide was added from a 1000× stock in DMSO-d6 (2 μL) to the plates. The cells were incubated at 37° C. in an atmosphere of 5% CO2 and air for 18 hours.
(§6) When Carfilzomib was used, the compound was added from a 1000× stock in DMSO-d6 (2 μL) 4 hours before the addition of Tz-thalidomide. For control experiments, untagged ligands were added instead of the TCO-compound and methyl-Tz-thalidomide was used instead of Tz-thalidomide. For the time course experiments, the cells were incubated for the indicated time after the addition of Tz-thalidomide and consequently lysed.

[4] = tested on: ERK1/2; test: ERK1/2 degradation by self-assembling CLIPTACs in A375 cells (immunoblot); format: cell-based; conditions: for ERK1/2 degradation, time course: Probe 1 10 μM then Tz-thalidomide 10 μM
Experimental: (§7) ERK1 and 2 levels were assessed by SDS-PAGE followed by Western Blot using a total ERK1/2 antibody. […] At low concentration (0.1 μM), the level of ERK1/2 was unchanged. […] Quantitation of the signal intensities allowed calculation of a DC50 of 490 nM.
as §3, §4, §5, §6

[5] = tested on: bromodomain family; test: Thermal shift selectivity across the bromodomain family; format: binding; conditions: 10 μM, duplicate
Experimental: Finally, the selectivity profile of JQ1-TCO against the BET family was determined by thermal shift assay. […] (Liu et al. (2012) ChromoHub: a data hub for navigators of chromatin-mediated signalling. Bioinformatics 28: 2205-2206)
(b) Selectivity of JQ1-TCO (10 μM, duplicate, thermal shift) across the bromodomain family. (c) Immunoblot for BRD4 and Actin showing JQ1-TCO concentration dependent downregulation of BRD4 protein levels. HeLa cells were treated with JQ1-TCO for 18 hours followed by treatment with Tz-thalidomide (10 μM) for 18 hours. (d) Immunoblot for BRD4 and Actin showing Tz-thalidomide concentration dependent downregulation of BRD4 protein levels. HeLa cells were treated with JQ1-TCO (10 μM) for 18 hours followed by treatment with Tz-thalidomide for 18 hours. (e) Immunoblot for BRD4 and Actin showing time-dependent downregulation of BRD4 protein levels. HeLa cells were treated with JQ1-TCO (10 μM) for 18 hours followed by treatment with Tz-thalidomide (10 μM) for the indicated time. […] HeLa cells were treated with (−)JQ1-TCO for 18 hours followed by treatment with Tz-thalidomide for 18 hours. […] HeLa cells were treated with JQ1-TCO for 18 hours followed by treatment with Methyl-Tz-thalidomide for 18 hours. […] Experiments performed on HeLa cells.

[6] = biological target: T4, ERK2 (Homo sapiens, UniProt P28482); test: ERK2 degradation by self-assembling CLIPTACs in HCT116 cells (immunoblot); format: cell-based; conditions: high concentrations of Probe 1 18 h then Tz-thalidomide 10 μM 18 h
T4 construct: host or cells: HCT116
Experimental: as §7, §3
The medium was removed and the cells were washed with PBS (2×). A375 and HCT116 cells were lysed with TG Lysis buffer (150 μL per well) and kept on ice for 20 min. The cell lysates were centrifuged at 14000 rpm for 10 min at 4° C. and the protein concentration was determined by a Pierce™ BCA Protein Assay Kit. Samples were normalised, separated on 4-12% NuPAGE gels (Life Technologies) and transferred onto a nitrocellulose membrane (Novex). […]

[7] = tested on: A375 cells; test: Activity in A375 cells (GI50); format: cell-based; conditions: Homo sapiens, A-375
[8] = tested on: ERK1/2; test: ERK1/2 degradation by self-assembling CLIPTACs in A375 cells (immunoblot); format: cell-based
[9] = 4-hour pre-treatment with Carfilzomib (1 μM) in the CLIPTAC experiment

T4 sequence (P28482 whole entry): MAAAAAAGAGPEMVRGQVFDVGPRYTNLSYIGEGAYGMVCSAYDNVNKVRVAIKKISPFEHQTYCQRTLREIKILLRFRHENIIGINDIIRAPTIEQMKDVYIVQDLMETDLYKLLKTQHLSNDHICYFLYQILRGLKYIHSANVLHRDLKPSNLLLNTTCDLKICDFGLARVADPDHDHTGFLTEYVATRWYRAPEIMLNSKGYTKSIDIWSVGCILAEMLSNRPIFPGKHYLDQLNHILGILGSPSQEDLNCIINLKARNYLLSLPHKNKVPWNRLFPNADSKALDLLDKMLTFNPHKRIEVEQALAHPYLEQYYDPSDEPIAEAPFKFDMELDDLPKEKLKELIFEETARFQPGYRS

Compound: Cc1sc2c(c1C)C(c1ccc(Cl)cc1)=N[C@H](CC(=O)NCCCNC(=O)OC1CC/C=C/CCC1)c1nnc(C)n1-2 (single isomer, unassigned; (-)) [(−)JQ1-TCO]
IC50 [1]: 13.5 ± 0.21 µM
IC50 [2]: 24.3 ± 0.92 µM
BRD4 degradation ([3]; (−)JQ1-TCO at any concentration tested, then Tz-thalidomide 10 μM): no BRD4 degradation

Compound: Cc1sc2c(c1C)C(c1ccc(Cl)cc1)=N[C@@H](CC(=O)NCCCNC(=O)OC1CC/C=C/CCC1)c1nnc(C)n1-2 (stereo partly drawn) [JQ1-TCO, (4E)-Cyclooct-4-en-1-yl N-(3-{2-[(9S)-7-(4-chlorophenyl)-4,5,13-trimethyl-3-thia-1,8,11,12-tetraazatricyclo[8.3.0.0^2,6]trideca-2(6),4,7,10,12-pentaen-9-yl]acetamido}propyl)carbamate]
IC50 [1]: 0.016 ± 0.003 µM
IC50 [2]: 0.063 ± 0.002 µM
Selectivity across the bromodomain family (thermal shift) [5]: bind selectively to subfamily II
BRD4 level, time course ([3]; after 16 hours): clearly dropped
BRD4 level, time course ([3]; after 24 hours): complete degradation
BRD4 level, time course ([3]; up to 8 hours): unchanged
BRD4 degradation ([3]; JQ1-TCO 1 and 0.3 μM 18 h, then Tz-thalidomide 10 μM 18 h): partial degradation
BRD4 degradation ([3]; JQ1-TCO 10 and 3 μM 18 h, then Tz-thalidomide 10 μM 18 h): complete degradation
DC50 ([3]; JQ1-TCO 18 h followed by fixed Tz-thalidomide (10 μM) 18 h, read-out: 50% degradation concentration (DC50) of BRD4): 0.42 µM
BRD4 level ([3]; compound alone): unaffected

Compound: C=CC(=O)Nc1ccccc1Nc1nc(Nc2ccnc(C#CCCNC(=O)OC3CC/C=C/CCC3)c2)ncc1Cl (stereo not drawn) [Probe 1, (4E)-Cyclooct-4-en-1-yl N-(4-{4-[(5-chloro-4-{[2-(prop-2-enamido)phenyl]amino}pyrimidin-2-yl)amino]pyridin-2-yl}but-3-yn-1-yl) carbamate]
ERK1/2 level ([4]; Probe 1 0.1 μM 18 h then Tz-thalidomide 10 μM 18 h): unchanged
ERK1/2 degradation, time course ([4]; after 8 hours): partially
ERK1/2 degradation, time course ([4]; after 16 hours): complete
ERK1/2 degradation ([4]; Probe 1 0.3 and 1 μM 18 h then Tz-thalidomide 10 μM 18 h): Partial degradation
DC50 ([4]; Probe 1 18 h then Tz-thalidomide 10 μM 18 h): 0.49 µM
ERK1/2 suppression ([4]; Probe 1 at higher concentrations 18 h then Tz-thalidomide 10 μM 18 h): complete
ERK1/2 level ([4]; compound alone): unmodified
ERK2 degradation [6]: complete degradation
GI50 [7]: 0.47 ± 0.14 µM

Now from value to molecule, other results behind:

BRD4 level [3, 9]: remained the same as in untreated cells
Compound: CC(C)C[C@H](NC(=O)[C@H](CCc1ccccc1)NC(=O)CN1CCOCC1)C(=O)N[C@@H](Cc1ccccc1)C(=O)N[C@@H](CC(C)C)C(=O)[C@@]1(C)CO1 [Carfilzomib, reference compound]
ERK1/2 degradation [4, 9]: rescued

BRD4 degradation ([3]; JQ1-TCO 10 μM 18 h, then Tz-thalidomide 10 and 3 μM 18 h): completely degraded
BRD4 degradation ([3]; JQ1-TCO 10 μM 18 h, then Tz-thalidomide at lower concentrations 18 h): partially
BRD4 level ([3]; compound alone): unaffected
Compound: Cc1nnc(-c2ccc(CNC(=O)CCCCCOc3cccc4c3C(=O)N(C3CCC(=O)NC3=O)C4=O)cc2)nn1 (stereo not drawn) [Tz-thalidomide, 6-{[2-(2,6-Dioxopiperidin-3-yl)-1,3-dioxo-2,3-dihydro-1H-isoindol-4-yl]oxy}-N-{[4-(6-methyl-1,2,4,5-tetrazin-3-yl)phenyl]methyl}hexanamide]
ERK1/2 level ([4]; compound alone): unmodified
ERK1/2 degradation profile ([8]; Probe 1 1 μM 4 hours then Tz-thalidomide 1 μM 18 hours): best degradation profile
ERK1/2 degradation ([8]; Probe 1 4 h then Tz-thalidomide 0.1 and 0.3 μM): not observed

BRD4 level ([3]; JQ1-TCO 10 μM then methyl-Tz-thalidomide 10 μM): remained unchanged
BRD4 level ([3]; JQ1-TCO 10 μM then methyl-Tz-thalidomide 10 μM, listed as Methyl-Tz-thalidomide): no BRD4 degradation
Compound: Cc1nnc(-c2ccc(CNC(=O)CCCCCOc3cccc4c3C(=O)N(C3CCC(=O)N(C)C3=O)C4=O)cc2)nn1 (stereo not drawn) [methyl-Tz-thalidomide, N-{[4-(6-Methyl-1,2,4,5-tetrazin-3-yl)phenyl]methyl}-6-{[2-(1-methyl-2,6-dioxopiperidin-3-yl)-1,3-dioxo-2,3-dihydro-1H-isoindol-4-yl]oxy}hexanamide]
ERK1/2 degradation compared with Tz-thalidomide ([4]; Probe 1 18 h then methyl-Tz-thalidomide 10 μM 18 h): far less effective; also recorded: reduced ERK1/2 degradation
